Data set [1] in a line: Safety of CMP-14:0 PA in VX2 tumor bearing rabbits (body weight, AST, ALT). The format is in vivo, New Zealand White rabbits. The conditions noted are these: 1.5 mg IV on W0 and W1. On the procedure: FIGS. 31A-31C: CMP-14:0 PA is safe in rabbits. (FIG. 31A) VX2 tumor tissues were cut into pieces and implanted within the muscle of the both hindlimbs on W-3.5. […] (FIG. 31B) Serum was collected on W2 for measurement of AST and ALT levels as indicators of liver function. (FIG. 31C) Body weight changes in VX2 tumor bearing rabbits were monitored over the two cycles of treatment.
New Zealand White rabbits were used for this study. All rabbits were housed individually in cages under constant 21° C. temperature and 12-h light/dark cycles. All animals were cared for following federal, state, and local guidelines. All animal experimental procedures performed were in accordance with and approved by the Institutional Animal Care & Use Committee (IACUC) at the University of Michigan, Ann Arbor and complied with the National Institutes of Health (NIH) Guidelines for the care and use of laboratory animals. For establishing VX2 squamous cell carcinoma in rabbits, 4 mm^3 fresh tumor tissues were cut into small pieces and resuspended in 1 mL PBS for intramuscular injections within the hindlimbs. Both hindlimbs were implanted with the tumor tissue suspension. […] In the antitumor efficacy study, two doses of CMP-14:0 PA and diABZi were given with one week interval and the rabbits were euthanized 1 week after the last dose for primary tumors and lung metastasis analysis. […]

The subject of another data set is B16F10 cells. In words: B16F10 tumor model, CMP versus other STING-activating formulations. The format is in vivo, C57BL/6 mice. On the procedure:
FIGS. 23A-P: Robust therapeutic effect of CMPCDA in multiple tumor models. (FIGS. 23A-23J) Therapeutic effect of CMPCDA was compared with other CDA formulations and other STING agonists in an established B16F10 tumor model. (FIGS. 23A-23E) Tumor-bearing C57BL/6 mice were treated with CMPCDA, CDA-Zn particle (CZPCDA), CDA liposome), ADU-S100, or diABZI (all 5 μg doses of STING agonists, I.T.) on the indicated time points (FIG. 23A). Shown are (FIG. 23B) the individual tumor growth, (FIG. 23C) representative photos of tumors, (FIG. 23D) average tumor growth and (FIG. 23E) survival. […] Data were analyzed by two-way ANOVA (FIG. 23D, FIG. 23I, FIG. 23P) with Bonferroni multiple comparisons post-test. Survival of (FIG. 23E, FIG. 23J, FIG. 23P) was analyzed by Kaplan-Meier survival analysis with log-rank (Mantel-Cox) test. *p and #p in (FIG. 23P) denote statistical significance relative to the untreated and CDA groups, respectively.
All animals were cared for following federal, state, and local guidelines. […] Tumor size and survival were monitored every 2-4 days. Tumor size was calculated based on equation: volume=length×width^2×0.5. […] At indicated time points, the cytokine levels in serum were measured by ELISA assay in the Cancer Center Immunology Core of the University of Michigan. The amount of tumor antigen-specific T cells among PBMC were analyzed using the IFN-γ ELISPOT assay. […]

The test system of data set [2] is VX2 squamous cell carcinoma. In words: Rabbit VX2 squamous cell carcinoma model. The format is in vivo, New Zealand White rabbits. The note with it: IV on W0 and W1; CMP-14:0 PA 0.5 mg, diABZi 1.5 mg; versus non-treated rabbits. Here is the method: FIGS. 32A-E: CMP-14:0 PA exerts robust efficacy in rabbit VX2 squamous cell carcinoma model. (FIG. 32A) VX2 tumor tissues were cut into pieces and implanted within the muscle of the both hindlimbs on W-3.5. Rabbits were treated IV with 0.5 mg CMP-14:0 PA or 1.5 mg diABZi on W0 and W1. Shown are (FIG. 32B) total weight of primary tumors dissected from the muscle of the hindlimbs. (FIG. 32C) total volume of the primary tumor dissected from the muscle of the hindlimbs. (FIG. 32D) Measured tumor area ratio based on H&E staining slides of lung sections. (FIG. 32E) Representative images of the lungs.
New Zealand White rabbits were used for this study. All rabbits were housed individually in cages under constant 21° C. temperature and 12-h light/dark cycles. All animals were cared for following federal, state, and local guidelines. All animal experimental procedures performed were in accordance with and approved by the Institutional Animal Care & Use Committee (IACUC) at the University of Michigan, Ann Arbor and complied with the National Institutes of Health (NIH) Guidelines for the care and use of laboratory animals. For establishing VX2 squamous cell carcinoma in rabbits, 4 mm^3 fresh tumor tissues were cut into small pieces and resuspended in 1 mL PBS for intramuscular injections within the hindlimbs. Both hindlimbs were implanted with the tumor tissue suspension. […]

The record followed here is patent publication US20250213474A1, “COMPOSITIONS AND METHODS FOR METAL CONTAINING FORMULATIONS CAPABLE OF MODULATING IMMUNE RESPONSE” (The Regents of the University of Michigan, priority 2021, published 2025).

As to diABZI, the “rabbits with elevated level of AST and ALT” value in data set [1] is 1 out of 3. The “anti-tumor effect after I.T. therapy” value with B16F10 cells (5 μg doses of STING agonists, I.T.) is recorded as “comparable anti-tumor responses”. Besides, the “anti-tumor effect after I.V. therapy” value in the data set on B16F10 cells (20 μg doses, I.V.) is listed as “only minor anti-tumor effects”. For the same substance, the “weight and volume of primary tumors in the hindlimbs” value in data set [2] is “did not decrease the weight or volume of primary tumors”.
